Assay results from patent US9155752B2, “Liver function-improving agent” (UENO FINE CHEMICALS INDUSTRY, LTD., priority 2012, dated 2015).
Entries after “also recorded” stand apart in the source; their conditions may differ.

Experiments:
[1] = tested on: NASH mice; experiment: Sirius Red staining of liver, fibrosis area % (Test Example 3); assay type: in vivo; settings: for Fibrosis area %, Significant difference: Bonferroni, 5% level, tendency at 10% level; for Fibrosis area % (Sirius Red staining), mean ± standard deviation: 8 weeks of age
Description: A solid diet CE-2 (lipid 4.6% by weight, manufactured by CLEA Japan, Inc.) was used as a normal diet. A solid diet, High Fat Diet 32 (lipid 32.0% by weight, sucrose 6.75% by weight, manufactured by CLEA Japan, Inc.), was used as a sucrose-containing high fat diet. As a maltitol-containing high-fat diet, a special diet (lipid 32.0% by weight, maltitol 6.08% by weight; manufactured by CLEA Japan, Inc.) obtained by replacing the total amount (6.75% by weight) of sucrose in a solid diet, High Fat Diet 32, with powdered maltitol (Whole Crystalline Maltitol Ueno 60M (purity of maltitol: 90%), manufactured by Ueno Fine Chemicals Industry Ltd.) was used. Sodium hypochlorite (PURELOX-S, manufactured by OYALOX Co., Ltd.) was added to pure water prepared by Elix-UV pure water producing apparatus, to a final concentration of 0.00009%, so that pure water for use in the test was obtained. An aqueous maltitol solution was prepared by dissolving powdered maltitol (Whole Crystalline Maltitol Ueno 60M (purity of maltitol: 90%), manufactured by Ueno Fine Chemicals Industry Ltd.) in pure water to a concentration of 1.8% (weight/volume). The purity of maltitol in the aqueous maltitol solution was 1.62%. Twenty-one female SPF mice (C57BL/6J, produced by CLEA Japan, Inc.) on day 14 of pregnancy were purchased and acclimation was performed. All animals were allowed to make a natural birth and a born male was used to produce a model. In addition, the weaning was at 4 weeks after birth. Streptozotocin (Sigma-Aldrich Japan K.K.) was adjusted to a concentration of 10 mg/mL with a physiological saline solution (manufactured by Otsuka Pharmaceutical Factory, Inc.) and the solution was subcutaneously administered once to the back of 2-day-old male mice at a dose of 20 μL/mouse (200 μg/mouse). Afterwards, the mother animal took care of the baby until weaning. The weaning was on day 28±2 after birth. After the weaning, a normal diet was supplied ad libitum to animals receiving no streptozotocin (normal mice (group S1 and group 1)), and a sucrose-containing high fat diet was supplied ad libitum to animals receiving streptozotocin (NASH mice (group S2, group 2, group 3, and group 4). A normal diet was supplied ad libitum to normal mice (group 1). With respect to NASH mice, a sucrose-containing high fat diet was supplied ad libitum to the sucrose group (group 2), and a maltitol-containing high fat diet was supplied ad libitum to the maltitol-low dose group (group 3) and the maltitol-high dose group (group 4). An aqueous maltitol solution was supplied ad libitum only to the maltitol-high dose group (group 4) of 5 to 8 weeks of age, and pure water was supplied ad libitum to the groups other than group 4 of 5 to 8 weeks of age. Six male animals per group were assigned to groups S1 and S2, reared up to 5 weeks of age, and then necropsied. Eight male animals per group were assigned to groups 1, 2, 3 and 4, reared up to 8 weeks of age, and then necropsied. At scheduled necropsy of the animals of 5 or 8 weeks of age, all individuals were anesthetized with diethyl ether (manufactured by Sigma-Aldrich Japan K.K.) and a needle through which heparin sodium (Novo Heparin Injection 1000, manufactured by Mochida Pharmaceutical Co., Ltd.) had been passed was punctured to the heart to aspirate the whole blood, leading to euthanasia, followed by harvest of the organ. […]

[2] = tested on: C57BL/6 male mice fed high fat diet; experiment: Blood ketone bodies value after 8-week feeding (Test Example 1); assay type: in vivo; parameters: key to Blood ketone bodies value, Significant difference: *: a significant difference was observed at 1% level of significance relative to group 3; settings: for Blood ketone bodies value (Mean ± Standard error): 8 weeks
Description: Eight-week-old C57BL/6 male mice (CLEA Japan, Inc.) were divided at random into groups (each group: four animals) and then used. As a normal diet, solid diet MF (lipid component 5.3%, manufactured by Oriental Yeast Co., Ltd.) was used. As a high-fat diet, solid diet High Fat Diet 32 (lipid component 32.0%, manufactured by CLEA Japan, Inc.) was used. As a sample water, 2.5% by weight of aqueous sucrose solution, 2.25% by weight of aqueous maltitol solution, and 4.5% by weight of aqueous maltitol solution obtained by respectively dissolving, as a test substance, sucrose (manufactured by Wako Pure Chemical Industries, Ltd.) and maltitol (Whole Crystalline Maltitol Ueno 60M, having maltitol purity of 90%, manufactured by Ueno Fine Chemicals Industry, Ltd.) in distilled water were used. Distilled water was used as a negative sample. The sample water was administered by making it available ad libitum and the amount of sample water intake was recorded. The dose of sucrose per day calculated from the concentration of the sample water and the water intake was 3 g per 1 kg of body weight. The dose of maltitol per day calculated in the same manner as above was 2.7 g per 1 kg of body weight in mice receiving 2.25% aqueous maltitol solution, and 4.5 g per 1 kg of body weight in mice receiving 4.5% aqueous maltitol solution. The diet and the sample water (test substance aqueous solution or distilled water) listed in Table 1 were administered to mice in each group, and the animals were fed for 8 weeks. After 8-week test feeding, pentobarbital of 0.5 mg/10 g of body weight was intraperitoneally administered to mice, and blood was collected from the tail vein under deep anesthesia. Further, by using Precision Xceed β-Ketone Measuring Electrode (manufactured by Abbott Japan Co., Ltd.), ketone bodies value in blood, which is an indicator of fat burning in the liver, was measured. A significant difference test by the t-test method was performed on blood AST values, blood ALT values, and blood ketone bodies values were evaluated by performing significant difference tests on these values via t-test.

| Compound | Fibrosis area %, Significant difference ([1]; Group 3 (low-dose maltitol) vs sucrose group (group 2)) | Fibrosis area % (Sirius Red staining), mean ± standard deviation ([1]; Group 3, low-dose maltitol: HFD32-M (maltitol 6.08%) + pure water) | Fibrosis area %, Significant difference ([1]; Group 4 (high-dose maltitol) vs sucrose group (group 2)) | Fibrosis area % (Sirius Red staining), mean ± standard deviation ([1]; Group 4, high-dose maltitol: HFD32-M (maltitol 6.08%) + aqueous maltitol solution 1.62%) | Blood ketone bodies value, change in words ([2]; Group 4 (2.25% aqueous maltitol solution) in comparison with group 3 (sucrose)) | Blood ketone bodies value, Significant difference ([2]; Group 4 (2.25% aqueous maltitol solution) relative to group 3 (sucrose), t-test) | Blood ketone bodies value (Mean ± Standard error) ([2]; Group 4: high fat diet + 2.25% aqueous maltitol solution) | Blood ketone bodies value, change in words ([2]; Group 5 (4.5% aqueous maltitol solution) relative to group 3 (sucrose)) | Blood ketone bodies value (Mean ± Standard error) ([2]; Group 5: high fat diet + 4.5% aqueous maltitol solution) | Fibrosis area % (Sirius Red staining), mean ± standard deviation ([1]; Group 2, sucrose group: HFD32 (sucrose 6.75%) + pure water) | Blood ketone bodies value (Mean ± Standard error) ([2]; Group 3: high fat diet + 2.5% aqueous sucrose solution) |
| --- | --- | --- | --- | --- | --- | --- | --- | --- | --- | --- | --- |
| OC[C@@H](O)[C@@H](O[C@H]1O[C@H](CO)[C@@H](O)[C@H](O)[C@H]1O)[C@H](O)[C@@H](O)CO [maltitol] | tendency to be low; also recorded: Tendency to be different | 0.89 ± 0.15% | tendency to be low; also recorded: Tendency to be different | 0.86 ± 0.27% | significant improvement effect | * | 0.20 ± 0.04 mmol/L | increased | 0.18 ± 0.05 mmol/L | – | – |
| OC[C@H]1O[C@@](CO)(O[C@H]2O[C@H](CO)[C@@H](O)[C@H](O)[C@H]2O)[C@@H](O)[C@@H]1O [sucrose, reference compound] | – | – | – | – | – | – | – | – | – | 1.09 ± 0.23% | 0.08 ± 0.03 mmol/L |
